For assay [1], the system named is PC-3. Put plainly: Cytotoxicity against human PC3 cells assessed as decrease in cell viability after 72 hrs by MTT assay. The class given is functional, cell-based.
Assay [2] has as its system HepG2. The assay can be described thus: Cytotoxicity against human HepG2 cells assessed as decrease in cell viability after 72 hrs by MTT assay. The class given is functional, cell-based. A general note: Tetrazolium dyes change colour on reduction, which living cells bring about.
The test system of assay [3] is A549. The assay can be described thus: Cytotoxicity against human A549 cells assessed as decrease in cell viability after 72 hrs by MTT assay. The class given is functional, cell-based. Conditions: A549, 72 h; call rule not given here.
Assay [4] has as its system MCF7. The assay can be described thus: Cytotoxicity against human MCF7 cells assessed as decrease in cell viability after 72 hrs by MTT assay. The class given is functional, cell-based.
For assay [5], the system named is A549. Put plainly: Induction of apoptosis in human A549 cells assessed as viable cells at 1 uM after 48 hrs by Annexin V-FITC/propidium iodide-staining based by flow cytometric analysis (reference value: 93.27%). The class given is functional. Particulars: A549, 48 h, read-out: Activity.
In assay [6] the test system is A549. Put plainly: Induction of apoptosis in human A549 cells assessed as early apoptotic cells at 1 uM after 48 hrs by Annexin V-FITC/propidium iodide-staining based by flow cytometric analysis (reference value: 3.40%). The class given is functional. A general note: Flow cytometry measures light scatter and fluorescence of single cells or particles in a stream.
The test system of assay [7] is A549. The assay can be described thus: Induction of apoptosis in human A549 cells assessed as necrotic cells at 0.5 uM after 48 hrs by Annexin V-FITC/propidium iodide-staining based by flow cytometric analysis (reference value: 0.64%). The class given is functional.
Assay [8] relates to HepG2. Put plainly: Potency index, ratio of afatinib IC50 to compound IC50 for human HepG2 cells. The class given is functional.
Assay [9] deals with A549. Put plainly: Induction of apoptosis in human A549 cells assessed as viable cells at 0.5 uM after 48 hrs by Annexin V-FITC/propidium iodide-staining based by flow cytometric analysis (reference value: 93.27%). The class given is functional. Particulars: A549, 48 h, read-out: Activity.
For assay [10], the system named is A549. The assay can be described thus: Induction of apoptosis in human A549 cells assessed as necrotic cells at 1 uM after 48 hrs by Annexin V-FITC/propidium iodide-staining based by flow cytometric analysis (reference value: 0.64%). The class given is functional.
The target in assay [11] is Epidermal growth factor receptor (Homo sapiens, UniProt P00533). Put plainly: Inhibition of EGFR (unknown origin) using FAM-labeled peptide as substrate measured after 10 mins by mobility shift assay.
In assay [12] the test system is A549. Put plainly: Induction of apoptosis in human A549 cells assessed as early apoptotic cells at 0.5 uM after 48 hrs by Annexin V-FITC/propidium iodide-staining based by flow cytometric analysis (reference value: 3.40%). The class given is functional.
The test system of assay [13] is MCF7. Put plainly: Potency index, ratio of afatinib IC50 to compound IC50 for human MCF7 cells. The class given is functional.
Assay [14] has as its system A549. The assay can be described thus: Induction of apoptosis in human A549 cells after 48 hrs by Annexin V-FITC/propidium iodide-staining based by flow cytometric analysis. The class given is functional, cell-based.
In assay [15] the test system is A549. The assay can be described thus: Induction of apoptosis in human A549 cells assessed as late apoptotic cells at 1 uM after 48 hrs by Annexin V-FITC/propidium iodide-staining based by flow cytometric analysis (reference value: 2.69%). The class given is functional.
Assay [16] deals with A549. The assay can be described thus: Induction of apoptosis in human A549 cells assessed as late apoptotic cells at 0.5 uM after 48 hrs by Annexin V-FITC/propidium iodide-staining based by flow cytometric analysis (reference value: 2.69%). The class given is functional.
The mark [17] stands for this setting: Homo sapiens, PC-3, 72 h, read-out: IC50.
[18] abbreviates: Homo sapiens, HepG2, 72 h, read-out: IC50.
Setting [19] is: Homo sapiens, MCF7, 72 h, read-out: IC50.

Chain of Epidermal growth factor receptor (P00533 whole entry): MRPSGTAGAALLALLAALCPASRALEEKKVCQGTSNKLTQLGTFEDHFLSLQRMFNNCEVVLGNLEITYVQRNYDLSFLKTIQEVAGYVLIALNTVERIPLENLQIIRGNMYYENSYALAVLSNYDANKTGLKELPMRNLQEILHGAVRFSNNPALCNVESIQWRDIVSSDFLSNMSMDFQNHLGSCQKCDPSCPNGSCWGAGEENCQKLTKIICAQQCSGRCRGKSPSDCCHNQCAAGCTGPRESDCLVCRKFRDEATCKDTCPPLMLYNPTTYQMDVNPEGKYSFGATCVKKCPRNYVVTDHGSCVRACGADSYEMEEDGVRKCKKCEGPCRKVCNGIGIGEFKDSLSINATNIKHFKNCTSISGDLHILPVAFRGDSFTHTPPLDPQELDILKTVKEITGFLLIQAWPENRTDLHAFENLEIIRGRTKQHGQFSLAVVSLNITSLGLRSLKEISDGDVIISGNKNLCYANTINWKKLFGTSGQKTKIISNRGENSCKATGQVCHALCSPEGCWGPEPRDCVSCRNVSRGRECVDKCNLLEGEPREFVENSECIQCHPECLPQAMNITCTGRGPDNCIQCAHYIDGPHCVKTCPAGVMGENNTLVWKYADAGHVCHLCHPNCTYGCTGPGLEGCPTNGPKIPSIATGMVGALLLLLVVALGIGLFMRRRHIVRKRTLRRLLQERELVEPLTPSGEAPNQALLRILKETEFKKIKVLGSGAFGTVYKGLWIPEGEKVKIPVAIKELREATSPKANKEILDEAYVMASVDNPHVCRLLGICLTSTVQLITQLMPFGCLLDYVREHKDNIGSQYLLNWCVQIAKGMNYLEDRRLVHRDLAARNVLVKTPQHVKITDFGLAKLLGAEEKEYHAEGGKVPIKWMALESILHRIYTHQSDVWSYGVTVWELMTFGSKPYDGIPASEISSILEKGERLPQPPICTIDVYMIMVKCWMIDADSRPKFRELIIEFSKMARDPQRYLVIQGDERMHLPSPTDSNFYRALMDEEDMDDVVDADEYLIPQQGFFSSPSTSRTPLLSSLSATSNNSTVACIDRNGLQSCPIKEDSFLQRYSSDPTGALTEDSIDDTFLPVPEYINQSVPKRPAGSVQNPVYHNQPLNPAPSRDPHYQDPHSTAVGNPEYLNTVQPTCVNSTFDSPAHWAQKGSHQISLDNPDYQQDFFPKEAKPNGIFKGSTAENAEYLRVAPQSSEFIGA

The term IC50 denotes the midpoint of a concentration-inhibition curve. In the case of `COc1cc2ncnc(Nc3ccc(F)c(Cl)c3)c2cc1NC(=O)N/N=C/c1ccc(F)cc1`, the IC50 in assay [1] (setting [17]) stood at 36.5 µM; in assay [2] (setting [18]) it was 31.1 µM; in assay [3], 26.6 µM; in assay [4] (setting [19]), 35.1 µM.

As for `CC(C)(C)c1cc(/C=N/NC(=O)Nc2cc3c(Nc4ccc(F)c(Cl)c4)ncnc3cc2O[C@H]2CCOC2)cc(C(C)(C)C)c1O`, the IC50 in assay [1] (setting [17]) came out at 13.1 µM; in assay [2] (setting [18]) it was 12.5 µM; in assay [3] it was 18.9 µM; in [4] (setting [19]) it was 14.5 µM.

For `O=C(N/N=C/c1ccc(O)cc1)Nc1cc2c(Nc3ccc(F)c(Cl)c3)ncnc2cc1O[C@H]1CCOC1`, the viability at 1 µM in assay [5] came to 77.9%. The Activity in assay [6] is 8.81%; in [7], 2.37%; in [10], 4.37%; in assay [12] it was 6.81%; in [14], “Dose-dependent effect”; in assay [15] it was 8.94%. In assay [16], the Activity is listed as 6.94%. The IC50 in assay [1] (setting [17]) was 4.89 µM; in [2] (setting [18]), 0.07 µM; in assay [3] it was 1.32 µM; in assay [11], 0.056 µM; in [4] (setting [19]), 0.91 µM. Moreover, the “Ratio IC50” value in [8] turned out to be 19; in assay [13], 2.9. In addition, in [9], the viability at 0.5 µM was found to be 83.9%.

Regarding `COc1cc2ncnc(Nc3ccc(F)c(Cl)c3)c2cc1NC(=O)N/N=C/c1cccc(Br)c1`, the IC50 result in [1] (pc-3) is “Not Active”; in assay [2] (hepg2), “Not Active”; in assay [3] it was 28.1 µM; in [4] (setting [19]) it was 27.1 µM.

Take `COc1cc2ncnc(Nc3ccc(F)c(Cl)c3)c2cc1NC(=O)N/N=C/c1ccc(O)cc1O`: the IC50 in assay [1] (setting [17]) was 29.5 µM; in [2] (setting [18]), 32.1 µM; in [3], 31.4 µM; in assay [4] (setting [19]) it was 36.2 µM.

With `CCN(CC)c1ccc(/C=N/NC(=O)Nc2cc3c(Nc4ccc(F)c(Cl)c4)ncnc3cc2OC)c(O)c1`, the IC50 in assay [1] (setting [17]) was 34.3 µM; in [2] (setting [18]), 29.3 µM; in assay [3], 27.3 µM; in assay [4] (setting [19]) it was 27.3 µM.

Regarding `O=C(N/N=C/c1cccc(Br)c1)Nc1cc2c(Nc3ccc(F)c(Cl)c3)ncnc2cc1O[C@H]1CCOC1`, the IC50 turned out to be 15.5 µM in assay [1] (setting [17]), 32.3 µM in assay [2] (setting [18]), 10.7 µM in assay [3] and 12.4 µM in assay [4] (setting [19]).

Take `COc1cc(/C=N/NC(=O)Nc2cc3c(Nc4ccc(F)c(Cl)c4)ncnc3cc2O[C@H]2CCOC2)cc(OC)c1OC`: the IC50 in assay [1] (setting [17]) worked out at 29.6 µM; in assay [2] (setting [18]), 31.2 µM; in [3], 26.4 µM; in assay [4] (setting [19]), 26.5 µM.

As for `COc1ccc(/C=N/NC(=O)Nc2cc3c(Nc4ccc(F)c(Cl)c4)ncnc3cc2OC)cc1`, the IC50 in assay [1] (setting [17]) came out at 16.5 µM; in assay [2] (setting [18]), 21.3 µM; in assay [3], 28.1 µM; in assay [4] (setting [19]), 8.14 µM.

On to `COc1cc2ncnc(Nc3ccc(F)c(Cl)c3)c2cc1NC(=O)N/N=C/c1cc(OC)c(OC)c(OC)c1`, for which the IC50 was determined as 36.5 µM in [1] (setting [17]), 30.1 µM in [2] (setting [18]), 32.1 µM in assay [3] and 30.7 µM in assay [4] (setting [19]).

Turning to `COc1cc2ncnc(Nc3ccc(F)c(Cl)c3)c2cc1NC(=O)N/N=C/c1ccc(C#N)cc1`, the values for the IC50 in assay [1] (setting [17]), in [2] (setting [18]) and in assay [3] were 36.5 µM, 34.1 µM and 32.2 µM, respectively.

Consider `O=C(N/N=C/c1ccc(F)cc1)Nc1cc2c(Nc3ccc(F)c(Cl)c3)ncnc2cc1O[C@H]1CCOC1`, for which the IC50 entry in assay [1] (pc-3) was “Not Active”; in [2] (hepg2), “Not Active”; in [3] it was 35.1 µM; in assay [4] (setting [19]) it was 28.2 µM.

For the molecule `COc1ccc(/C=N/NC(=O)Nc2cc3c(Nc4ccc(F)c(Cl)c4)ncnc3cc2O[C@H]2CCOC2)c(OC)c1OC`, the IC50 worked out at 25.6 µM in assay [1] (setting [17]), 29.3 µM in assay [2] (setting [18]), 25.2 µM in assay [3] and 33.8 µM in assay [4] (setting [19]).

With `COc1cc2ncnc(Nc3ccc(F)c(Cl)c3)c2cc1NC(=O)N/N=C/c1ccc(F)cc1Cl`, the IC50 was 25.7 µM in [1] (setting [17]), 29.2 µM in [2] (setting [18]), 28.2 µM in assay [3] and “Not Active” in assay [4] (mcf7).

Consider `O=C(N/N=C/c1cc(Br)c(O)c(Br)c1)Nc1cc2c(Nc3ccc(F)c(Cl)c3)ncnc2cc1O[C@H]1CCOC1`, for which the IC50 amounted to 6.16 µM in assay [1] (setting [17]), 2.74 µM in assay [2] (setting [18]), 8.91 µM in assay [3] and 5.91 µM in assay [4] (setting [19]).
